In patent publication US10682353B2, “Varlitinib for use in the treatment of resistant or refractory cancer” (ASLAN Pharmaceuticals PTE LTD, priority 2015, dated 2020):

Experiments:
Type in all cases: in vivo, human
[1] = system: stage IV, extra-hepatic cholangiocarcinoma; assay: Example 2: Varlitinib 400 mg bi-daily combination therapy followed by monotherapy in a patient
Procedure: A person, stage IV, extra-hepatic cholangiocarcinoma, prior treatment: • Whipple • Radiotherapy • Gemzar/cisplatin for 6 months For the first 6 cycles, the patient received Varlitinib 400 mg BID continuously with cisplatin (80 mg/m^2 every 3 weeks) and capecitabine (1000 mg/m2 BID, 2 weeks on, 1 week off). […] In summary, the patient received varlitinib with chemo for 6 cycles and varlitinib monotherapy for another 4 cycles (3 weeks per cycle).

[2] = system: intrahepatic cholangiocarcinoma, stage IV; assay: Example 3: Varlitinib 400 mg bi-daily orally and FOLFOX in a patient (ASLAN001-002SG study)
Text: They received left hemihepatectomy followed by 6 cycles of adjuvant gemcitabine and cisplatin.

[3] = system: stage IV cholangiocarcinoma EGFR positive (3+) cancer; assay: Example 1: Varlitinib 400 mg bi-daily monotherapy in a patient; settings: after treatment cycle 6, Varlitinib 400 mg bi-daily monotherapy

In the case of `C[C@@H]1COC(Nc2ccc3ncnc(Nc4ccc(OCc5nccs5)c(Cl)c4)c3c2)=N1` [Varlitinib, (R)—N4-[3-Chloro-4-(thiazol-2-ylmethoxy)-phenyl]-N6-(4-methyl-4,5,-dihydro-oxazol-2-yl)-quinazoline-4,6-diamine], the “reduction in tumour size (tumor scan)” value ([1]; end of cycle 8, varlitinib monotherapy after 6 cycles of combination with cisplatin and capecitabine) is reported as 87%, the “image scan outcome based on RECIST” value ([1]; end of cycle 10, on varlitinib monotherapy, criterion >20% increase against nadir) is reported as “disease progression” and the “reduction in tumor size as the best response from baseline” value ([2]; Varlitinib 400 mg BID with mFOLFOX6 for 9 cycles, then 9 cycles varlitinib monotherapy (2 weeks per cycle), one patient) is reported as 53%. For the same compound, the “latest tumor assessment (response)” value ([2]; after cycle 18, 9 cycles Varlitinib 400 mg BID and mFOLFOX6, then 9 cycles varlitinib monotherapy) was “partial response”, the “tumour marker CA 19-9” value ([3]; fell from ~900 U/ml) was roughly 250 U/ml and the “liver tumours decreased in size” value ([3]; one patient progressive after gemcitabine and cisplatin/5-FU) was “up to 23%”.
